Where a name gives a salt, the structure may show the parent alone. Read-outs that look alike come from different tables or passages of the source.
Columns and labels:
[1] = test system: NCI-H292 lung cancer cells; assay: FDA drug screening, complete media vs cholesterol-free media without statin (TABLE 1); format: cell-based, human
[2] = test system: NCI-H292 lung cancer cells; assay: FDA drug screening, complete media vs cholesterol-free media with simvastatin (TABLE 2); format: cell-based, human
[3] = Complete minus Cholesterol-free, greater than 0 enhanced anti-cancer activity, about 0 neutral, below 0 antagonists
[4] = NCI-H292 cells in cholesterol-free media without statin
[5] = NCI-H292 cells in complete media
[6] = NCI-H292 cells, FDA drug library screen, cholesterol-free media with simvastatin 0.04 μM
[7] = NCI-H292 cells, FDA drug library screen, complete media
[8] = complete media vs cholesterol-free media + simvastatin (0.04 μM), >0 enhanced anti-cancer activity, about 0 neutral, <0 antagonist
[9] = NCI-H292 cells, cholesterol-free media with simvastatin 0.04 μM, cell growth value in FDA drug screen
[10] = NCI-H292 cells, complete media, cell growth value in FDA drug screen
[11] = complete media minus cholesterol-free media + simvastatin, >0 enhanced anti-cancer activity, about 0 neutral, <0 antagonist
[12] = NCI-H292 cells, cholesterol-free media without statin
[13] = complete vs cholesterol-free media, greater than 0 enhanced anti-cancer activity, about 0 neutral, below 0 antagonists
[14] = NCI-H292 cells, drug in cholesterol-free media with simvastatin 0.04 μM
[15] = NCI-H292 cells, drug in complete media
[16] = NCI-H292 cells, FDA library drug in cholesterol-free media with simvastatin 0.04 μM
[17] = NCI-H292 cells, FDA library drug in complete media
[18] = Complete minus Cholesterol-free, >0 enhanced anti-cancer activity, about 0 neutral, <0 antagonist
[19] = Complete minus Cholesterol-free, […]
[20] = NCI-H292 cells, cholesterol-free media without statin, FDA drug library screen
[21] = NCI-H292 cells, complete media, FDA drug library screen
[22] = complete media vs cholesterol-free media + simvastatin (0.04 μM), […]
[23] = NCI-H292 cells, cholesterol-free media with simvastatin 0.04 μM, FDA drug library screen (TABLE 2)
[24] = NCI-H292 cells, complete media, FDA drug library screen (TABLE 2)
[25] = complete media minus cholesterol-free media + simvastatin (0.04 μM), >0 enhanced anti-cancer activity, about 0 neutral, <0 antagonist
[26] = NCI-H292 cells, cholesterol-free media with simvastatin 0.04 μM, […]
[27] = NCI-H292 cells, complete media, […]
[28] = complete media minus cholesterol-free media + simvastatin, […]
[29] = NCI-H292 cells, FDA drug library screen, cholesterol-free media without statin
[30] = complete vs cholesterol-free media, >0 enhanced anti-cancer activity, about 0 neutral, <0 antagonist
[31] = Complete minus Cholesterol-free, greater than 0 enhanced anti-cancer activity, about 0 neutral, below 0 antagonist

CN(CC(=O)O)C(=N)N [Creatine]
Difference [1, 3]: −0.96 | Cholesterol-free [1, 4]: 2.303 | Complete [1, 5]: 1.348 | Cholesterol-free media + simvastatin (0.04 μM) [2, 6]: 1.925 | Complete Media [2, 7]: 1.831 | Difference [2, 8]: −0.09

CC(C)(O)c1ccccc1CC[C@@H](SCC1(CC(=O)O)CC1)c1cccc(/C=C/c2ccc3ccc(Cl)cc3n2)c1 [Montelukast (sodium)]
Difference [1, 3]: −0.51 | Cholesterol-free [1, 4]: 1.599 | Complete [1, 5]: 1.09 | Cholesterol-free media + simvastatin (0.04 μM) [2, 9]: 0.8464 | Complete Media [2, 10]: 0.9746 | Difference [2, 11]: 0.13

Cc1ccc(C(C)C)c(O)c1 [Thymol]
Cholesterol-free [1, 12]: 1.354 | Complete ([1]; NCI-H292 cells, complete media): 1.041 | Difference [1, 13]: −0.31 | Cholesterol-free media + simvastatin (0.04 μM) [2, 14]: 1.184 | Complete Media [2, 15]: 0.956 | Difference [2, 8]: −0.23

Cn1c(=O)c2c(ncn2CC2OCCO2)n(C)c1=O [Doxofylline]
Cholesterol-free [1, 12]: 1.338 | Complete ([1]; NCI-H292 cells, complete media): 0.9897 | Difference [1, 13]: −0.35 | Cholesterol-free media + simvastatin (0.04 μM) [2, 16]: 1.302 | Complete Media [2, 17]: 1.024 | Difference [2, 8]: −0.28

Cc1cc2c(s1)Nc1ccccc1N=C2N1CCN(C)CC1 [Olanzapine]
Cholesterol-free [1]: 0.9635 | Complete [1]: 0.9217 | Difference [1]: −0.04 | Cholesterol-free media + simvastatin (0.04 μM) [2]: 1.722 | Complete Media [2]: 1.489 | Difference [2]: −0.23

CCC(=O)NS(=O)(=O)c1ccc(-c2c(-c3ccccc3)noc2C)cc1 [Parecoxib]
Difference [1, 18]: −0.20 | Cholesterol-free [1, 12]: 0.9171 | Complete ([1]; NCI-H292 cells, complete media): 0.7131 | Cholesterol-free media + simvastatin (0.04 μM) [2, 14]: 0.9747 | Complete Media [2, 15]: 0.7244 | Difference [2, 8]: −0.25

CC(Oc1c(Cl)cccc1Cl)C1=NCCN1 (centres unmarked) [Lofexidine (hydrochloride)]
Difference [1, 3]: −0.50 | Cholesterol-free [1, 4]: 1.453 | Complete [1, 5]: 0.95 | Cholesterol-free media + simvastatin (0.04 μM) [2, 9]: 1.271 | Complete Media [2, 10]: 1.376 | Difference [2, 11]: 0.10

NC(=O)OC[C@H](N)Cc1ccccc1 [Solriamfetol]
Difference [1, 19]: −0.04 | Cholesterol-free [1, 20]: 1.006 | Complete [1, 21]: 0.9654 | Cholesterol-free media + simvastatin (0.04 μM) [2, 16]: 1.23 | Complete Media [2, 17]: 0.8852 | Difference [2, 22]: −0.34

CCCN[C@H]1CCc2nc(N)sc2C1 [Pramipexole]
Difference [1, 3]: −0.68 | Cholesterol-free [1, 4]: 1.519 | Complete [1, 5]: 0.8353 | Cholesterol-free media + simvastatin (0.04 μM) [2, 23]: 1.074 | Complete Media [2, 24]: 1.035 | Difference [2, 25]: −0.04

Tegaserod (maleate)
Difference [1, 19]: −0.26 | Cholesterol-free [1, 12]: 0.9824 | Complete ([1]; NCI-H292 cells, complete media): 0.7272 | Cholesterol-free media + simvastatin (0.04 μM) [2, 26]: 0.7216 | Complete Media [2, 27]: 0.7473 | Difference [2, 28]: 0.03

O=C(Nc1ccccc1)c1ccccc1O [Salicylanilide]
Difference [1, 19]: −0.19 | Cholesterol-free [1, 29]: 1.231 | Complete [1, 7]: 1.046 | Cholesterol-free media + simvastatin (0.04 μM) [2, 26]: 1.321 | Complete Media [2, 27]: 1.359 | Difference [2, 28]: 0.04

N#Cc1c(N2C[C@@H]3NCCO[C@H]3C2)c(F)cc2c(=O)c(C(=O)O)cn(C3CC3)c12 [Finafloxacin]
Difference [1, 19]: −0.22 | Cholesterol-free [1, 12]: 1.006 | Complete ([1]; NCI-H292 cells, complete media): 0.7899 | Cholesterol-free media + simvastatin (0.04 μM) [2, 14]: 1.227 | Complete Media [2, 15]: 0.9973 | Difference [2, 22]: −0.23

CN1CCN2c3ccccc3Cc3ccccc3C2C1 (centres unmarked) [Mianserin (hydrochloride)]
Cholesterol-free [1, 20]: 1.049 | Difference [1, 30]: 0.13 | Cholesterol-free media + simvastatin (0.04 μM) [2, 6]: 1.121 | Complete Media [2, 7]: 1.021 | Difference [2, 8]: −0.10

CC[C@H](C)[C@@H]1NC(=O)[C@H](Cc2ccc(O)cc2)NC(=O)[C@@H](N)CSSC[C@@H](C(=O)N2CCC[C@H]2C(=O)N[C@@H](CC(C)C)C(=O)NCC(N)=O)NC(=O)[C@H](CC(N)=O)NC(=O)[C@H](CCC(N)=O)NC1=O [Oxytocin]
Cholesterol-free [1, 12]: 1.585 | Complete ([1]; NCI-H292 cells, complete media): 1.211 | Difference ([1]; complete vs cholesterol-free media, […]): −0.37 | Cholesterol-free media + simvastatin (0.04 μM) [2, 6]: 1.057 | Complete Media [2, 7]: 0.9051 | Difference [2, 22]: −0.15

CN1[C@H]2C[C@H](OC(=O)[C@H](CO)c3ccccc3)C[C@@H]1[C@@H](O)C2 (racemic) [Racanisodamine]
Difference [1, 19]: −0.15 | Cholesterol-free [1, 29]: 1.184 | Complete [1, 7]: 1.034 | Cholesterol-free media + simvastatin (0.04 μM) [2, 23]: 0.9483 | Complete Media [2, 24]: 0.9207 | Difference ([2]; complete media minus cholesterol-free media + simvastatin (0.04 μM), […]): −0.03

C[C@@H](O)[C@H]1C(=O)N2C(C(=O)[O-])=C(SC3Cn4cnc[n+]4C3)[C@H](C)[C@H]12 (some centres unmarked) [Biapenem]
Difference [1, 31]: −0.11 | Cholesterol-free [1, 29]: 0.9795 | Complete [1, 7]: 0.8733 | Cholesterol-free media + simvastatin (0.04 μM) [2, 6]: 1.249 | Complete Media [2, 7]: 1.117 | Difference [2, 8]: −0.13

CO/N=C1\C[C@]2(C[C@@H]3C[C@@H](C/C=C(\C)C[C@@H](C)/C=C/C=C4\CO[C@@H]5[C@H](O)C(C)=C[C@@H](C(=O)O3)[C@]45O)O2)O[C@H](/C(C)=C/C(C)C)[C@H]1C [Moxidectin]
Difference [1, 18]: −0.21 | Cholesterol-free [1, 12]: 0.4893 | Complete ([1]; NCI-H292 cells, complete media): 0.2816 | Cholesterol-free media + simvastatin (0.04 μM) [2, 14]: 0.8625 | Complete Media [2, 15]: 0.6882 | Difference [2, 8]: −0.17

OC(Cn1cncn1)(Cn1cncn1)c1ccc(F)cc1F [Fluconazole]
Cholesterol-free [1, 12]: 1.23 | Complete ([1]; NCI-H292 cells, complete media): 0.8337 | Difference [1, 13]: −0.40 | Cholesterol-free media + simvastatin (0.04 μM) [2, 16]: 1.268 | Complete Media [2, 17]: 0.9392 | Difference [2, 8]: −0.33

CN1CC2c3ccccc3Oc3ccc(Cl)cc3C2C1 (centres unmarked) [Asenapine]
Cholesterol-free [1, 12]: 1.636 | Complete ([1]; NCI-H292 cells, complete media): 1.303 | Difference [1, 13]: −0.33 | Cholesterol-free media + simvastatin (0.04 μM) [2, 14]: 0.918 | Complete Media [2, 15]: 0.7002 | Difference [2, 8]: −0.22

CN1CCN2c3ncccc3Cc3ccccc3C2C1 (centres unmarked) [Mirtazapine]
Difference [1, 31]: −0.17 | Cholesterol-free [1, 29]: 1.176 | Complete [1, 7]: 1.005 | Cholesterol-free media + simvastatin (0.04 μM) [2, 23]: 0.9802 | Complete Media [2, 24]: 0.914 | Difference [2, 25]: −0.07

C[C@]12CC[C@@H]3c4ccc(O)cc4CC[C@H]3[C@@H]1CC[C@H]2O [Alpha-Estradiol]
Difference [1, 31]: −0.14 | Cholesterol-free [1, 29]: 0.998 | Complete [1, 7]: 0.8561 | Cholesterol-free media + simvastatin (0.04 μM) [2, 6]: 1.11 | Complete Media [2, 7]: 1.408 | Difference [2, 11]: 0.30

Cc1ccnc(NS(=O)(=O)c2ccc(N)cc2)n1 [Sulfamerazine]
Difference [1, 3]: −0.49 | Cholesterol-free [1, 4]: 1.498 | Complete [1, 5]: 1.009 | Cholesterol-free media + simvastatin (0.04 μM) [2, 16]: 2.163 | Complete Media [2, 17]: 1.355 | Difference [2, 8]: −0.81

CC(COc1ccccc1)NC(C)C(O)c1ccc(O)cc1 (centres unmarked) [Isoxsuprine hydrochloride]
Cholesterol-free [1, 12]: 1.314 | Complete ([1]; NCI-H292 cells, complete media): 0.939 | Difference [1, 13]: −0.38 | Cholesterol-free media + simvastatin (0.04 μM) [2, 14]: 0.8873 | Complete Media [2, 15]: 0.6774 | Difference [2, 8]: −0.21

CC(C)(C)C(O)/C=C/c1ccc2c(c1)OCO2 (centres unmarked) [Stiripentol]
Difference [1, 18]: 0.02 | Cholesterol-free [1, 20]: 0.9226 | Complete [1, 21]: 0.9415 | Cholesterol-free media + simvastatin (0.04 μM) [2, 23]: 0.9313 | Complete Media [2, 24]: 0.8754 | Difference [2, 25]: −0.06

CS(=O)(=O)Nc1cc2occ(NC=O)c(=O)c2cc1Oc1ccccc1 [Iguratimod]
Cholesterol-free [1, 12]: 1.252 | Complete ([1]; NCI-H292 cells, complete media): 0.9044 | Difference [1, 13]: −0.35 | Cholesterol-free media + simvastatin (0.04 μM) [2, 16]: 1.717 | Complete Media [2, 17]: 1.252 | Difference [2, 8]: −0.47

Cc1cc(NS(=O)(=O)c2ccc(N)cc2)nc(C)n1 [Sulfisomidin]
Difference [1, 19]: −0.21 | Cholesterol-free [1, 12]: 1.055 | Complete ([1]; NCI-H292 cells, complete media): 0.8471 | Cholesterol-free media + simvastatin (0.04 μM) [2, 16]: 1.147 | Complete Media [2, 17]: 0.7862 | Difference [2, 22]: −0.36

CCCc1cc(C(N)=S)ccn1 [Prothionamide]
Difference [1, 3]: −0.62 | Cholesterol-free [1, 4]: 1.391 | Complete [1, 5]: 0.7758 | Cholesterol-free media + simvastatin (0.04 μM) [2, 9]: 1.039 | Complete Media [2, 10]: 1.099 | Difference [2, 11]: 0.06

Miconazole (nitrate)
Cholesterol-free [1]: 0.9239 | Complete [1]: 0.8136 | Difference [1]: −0.11 | Cholesterol-free media + simvastatin (0.04 μM) [2]: 0.4137 | Complete Media [2]: 0.8009 | Difference [2]: 0.39

CC(C)Oc1ccc2c(=O)c(-c3ccccc3)coc2c1 [Ipriflavone]
Cholesterol-free [1, 20]: 0.6871 | Complete [1, 21]: 1.135 | Difference [1, 30]: 0.45 | Cholesterol-free media + simvastatin (0.04 μM) [2, 23]: 1.029 | Complete Media [2, 24]: 1.016 | Difference [2, 25]: −0.01

Reference: US20250144067A1, “PERSONALIZED STARVATION THERAPY FOR CANCER” (Faeth Therapeutics, Inc., priority 2021, published 2025)
